Measurements from patent publication US20240041042A1, “1-(PYRIDYL)-5-AZINYLPYRAZOLE DERIVATIVES, AND THEIR USE FOR CONTROL OF UNDESIRED PLANT GROWTH” (Bayer Aktiengesellschaft, priority 2020, published 2024).

How the values were obtained:
Type in all cases: in vivo
Lolium rigidum (LOLRI) = assay: Pre-emergence herbicidal action against LOLRI
Method in brief: (§1)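 Pre-emergence soil-surface spray, WP/EC formulation, 0.5% additive, 600 l/ha water, rates of 320 g/ha or lower. Greenhouse, ~3 wk. Visual score, % of untreated control (100% = plants dead, 0% = like control).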

[1] = tested on: Matricaria inodora (MATIN); assay: Pre-emergence herbicidal action against MATIN
Method in brief: as §1

[2] = tested on: Pharbitis purpurea (PHBPU); assay: Pre-emergence herbicidal action against PHBPU
Method in brief: as §1

[3] = tested on: Polygonum convolvulus (POLCO); assay: Pre-emergence herbicidal action against POLCO
Method in brief: as §1

Setaria viridis (SETVI) [4] = assay: Pre-emergence herbicidal action against SETVI
Method in brief: as §1

Setaria viridis (SETVI) [5] = assay: Post-emergence herbicidal action against SETVI
Method in brief: (§2)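 Values are percent visual activity (0% like control, 100% plants dead) after about 3 weeks in the greenhouse. Treatment: post-emergence spray at one-leaf stage, 600 l/ha spray volume, 0.5% additive, doses 320 g/ha or lower.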

[6] = tested on: Verconica persica (VERPE); assay: Post-emergence herbicidal action against VERPE
Method in brief: as §2

Viola tricolor (VIOTR) = assay: Post-emergence herbicidal action against VIOTR
Method in brief: as §2

[7] = tested on: Pharbitis purpurea (PHBPU); assay: Post-emergence herbicidal action against PHBPU
Method in brief: as §2

[8] = tested on: Abutilon theophrasti (ABUTH); assay: Post-emergence herbicidal action against ABUTH; conditions: visual rating about 3 weeks after treatment vs untreated controls (100% = plants have died, 0% = like control plants)
Method in brief: as §2

Row | SMILES | Pre-emergence action against LOLRI in % (Lolium rigidum (LOLRI); dosage 80 g/ha) | Pre-emergence action against LOLRI in % (Lolium rigidum (LOLRI); dosage 320 g/ha) | Pre-emergence action against MATIN in % ([1]; dosage 80 g/ha) | Pre-emergence action against MATIN in % ([1]; dosage 320 g/ha) | Pre-emergence action against PHBPU in % ([2]; dosage 80 g/ha) | Pre-emergence action against PHBPU in % ([2]; dosage 320 g/ha) | Pre-emergence action against POLCO in % ([3]; dosage 80 g/ha) | Pre-emergence action against POLCO in % ([3]; dosage 320 g/ha) | Pre-emergence action against SETVI in % (Setaria viridis (SETVI) [4]; dosage 80 g/ha) | Pre-emergence action against SETVI in % (Setaria viridis (SETVI) [4]; dosage 320 g/ha) | Post-emergence action against SETVI in % (Setaria viridis (SETVI) [5]; dosage 80 g/ha) | Post-emergence action against SETVI in % (Setaria viridis (SETVI) [5]; dosage 320 g/ha) | Post-emergence action against VERPE in % ([6]; 320 g/ha, VERPE) | Post-emergence action against VERPE in % ([6]; dosage 80 g/ha) | Post-emergence action against VIOTR in % (Viola tricolor (VIOTR); 80 g/ha) | Post-emergence action against VIOTR in % (Viola tricolor (VIOTR); 320 g/ha) | Post-emergence action against PHBPU in % ([7]; dosage 80 g/ha) | Post-emergence action against PHBPU in % ([7]; dosage 320 g/ha) | Post-emergence action against ABUTH in % ([8]; 80 g/ha) | Post-emergence action against ABUTH in % ([8]; 320 g/ha)
1 | C[C@@H](Oc1nn(-c2nc(F)ccc2F)c(-c2cncc(F)c2)c1C1CC1)C(=O)O [Example I-180] | 100% | 100% | 90% | 90% | 90% | 90% | 90% | 100% | 100% | 100% | 80% | 90% | 90% | 80% | 80% | 80% | – | – | – | –
2 | COC(=O)[C@@H](C)Oc1nn(-c2ccccn2)c(-c2cncc(F)c2)c1Cl [Example I-189] | 100% | 100% | 90% | 100% | 90% | 90% | 100% | 100% | 100% | 100% | 90% | 90% | 90% | 90% | 90% | 90% | 90% | 90% | – | –
3 | CCOC(=O)COc1nn(-c2ncccc2F)c(-c2cncc(F)c2)c1C1CC1 [Example I-174] | 100% | 100% | 90% | 90% | 90% | 90% | 90% | 100% | 90% | 100% | – | – | 80% | 80% | 80% | 80% | 80% | 90% | 80% | 80%
4 | CCOC(=O)COc1nn(-c2nc(F)ccc2F)c(-c2cncc(F)c2)c1C1CC1 [Example I-149] | 100% | 100% | 90% | 90% | 80% | 90% | 80% | 90% | 100% | 100% | 80% | 80% | 80% | – | 80% | 80% | 80% | 80% | – | –
5 | O=C(O)COc1nn(-c2ncccc2F)c(-c2cncc(F)c2)c1C1CC1 [Example I-175] | 100% | 100% | 90% | 90% | 80% | 90% | 90% | 90% | 90% | 100% | – | 80% | 80% | 80% | 80% | 80% | 80% | 90% | 80% | 80%
6 | O=C(O)COc1nn(-c2ncccc2F)c(-c2ccc(F)nc2)c1Br [Example I-17] | – | 100% | 90% | 100% | – | 90% | 90% | 100% | 100% | 100% | 80% | 80% | 80% | – | 80% | 80% | – | 80% | – | –
7 | COC(=O)COc1nn(-c2ncccc2F)c(-c2cncc(F)c2)c1Br [Example I-16] | 90% | 100% | 100% | 100% | – | 80% | 90% | 90% | 90% | 100% | 80% | 80% | 90% | 80% | 80% | 80% | 90% | 90% | – | –
8 | COC(=O)C(C)NC(=O)[C@@H](C)Oc1nn(-c2ccccn2)c(-c2cncc(F)c2)c1Br (stereo partly shown) [Example I-190] | 100% | 100% | 90% | 90% | 90% | 90% | 90% | 90% | 90% | 100% | 80% | 80% | 90% | 80% | 80% | 90% | – | – | 80% | 80%
9 | COC(=O)[C@@H](C)Oc1nn(-c2ncccc2F)c(-c2ccc(F)nc2)c1Br [Example I-05, Methyl (2R)-2-{[4-bromo-1-(3-fluoropyridin-2-yl)-5-(6-fluoropyridin-3-yl)-1H-pyrazol-3-yl]oxy}propanoate] | 80% | 100% | – | 90% | – | – | 90% | 90% | 100% | 100% | 80% | 90% | 90% | 90% | 100% | 100% | – | 90% | 80% | 80%
10 | COC(=O)COc1nn(-c2nc(F)ccc2F)c(-c2cncc(F)c2)c1C1CC1 [Example I-164] | 100% | 100% | 90% | 100% | 80% | 90% | – | 100% | 100% | 100% | 80% | 80% | 80% | 80% | – | 80% | 80% | 90% | – | –
11 | O=C(O)COc1nn(-c2nc(F)ccc2F)c(-c2cncc(F)c2)c1C1CC1 [Example I-148] | 90% | 100% | 90% | 90% | – | 90% | 80% | 90% | 90% | 100% | 80% | 80% | 80% | 80% | 80% | 80% | 80% | 90% | – | –
12 | O=C(O)COc1nn(-c2ccccn2)c(-c2cncnc2)c1Br [Example I-66] | 80% | 100% | – | 90% | – | – | 90% | 90% | 100% | 100% | 80% | 90% | 90% | 90% | 80% | 90% | – | 80% | – | 80%
13 | C[C@@H](Oc1nn(-c2ncccc2F)c(-c2ccc(F)nc2)c1Br)C(=O)O [Example I-18] | 90% | 100% | 100% | 100% | – | 90% | 100% | 100% | 100% | 100% | 80% | 80% | – | – | – | 80% | – | – | – | 80%
